Where two headings read alike, the source gives them in different places.
What was measured:
CB1 wild-type receptor [1] = biological target: T1, CB1 wild-type receptor (Homo sapiens, UniProt P21554); format: binding; details: for α: binding cooperativity factor between CP55,940 and the tested allosteric modulator: HEK293 cell membranes expressing CB1, tracer [3H]CP55,940
CB1 wild-type receptor [2] = biological target: T1, CB1 wild-type receptor; assay: [35S]GTPγS binding assay; format: biochemical; details: for Concentration giving complete inhibition of CP55,940-induced [35S]GTPγS binding / Effect on CP55,940-induced [35S]GTPγS binding in the presence of allosteric modulator: HEK293 cell membranes expressing CB1
CB1 wild-type receptor [3] = biological target: T1, CB1 wild-type receptor; details: earlier report, given for comparison; cited from earlier work
CB1 wild-type receptor [4] = biological target: T1, CB1 wild-type receptor; details: cited from earlier work; for Effect on CP55,940-induced [35S]GTPγS binding in the presence of allosteric modulator: earlier report, given for comparison
[5] = Solubility in common organic solvents; format: physicochemical; details: acetone, ethyl acetate, tetrahydrofuran, dichloromethane, diethyl ether, ethanol and methanol

T1 sequence (P21554 whole entry): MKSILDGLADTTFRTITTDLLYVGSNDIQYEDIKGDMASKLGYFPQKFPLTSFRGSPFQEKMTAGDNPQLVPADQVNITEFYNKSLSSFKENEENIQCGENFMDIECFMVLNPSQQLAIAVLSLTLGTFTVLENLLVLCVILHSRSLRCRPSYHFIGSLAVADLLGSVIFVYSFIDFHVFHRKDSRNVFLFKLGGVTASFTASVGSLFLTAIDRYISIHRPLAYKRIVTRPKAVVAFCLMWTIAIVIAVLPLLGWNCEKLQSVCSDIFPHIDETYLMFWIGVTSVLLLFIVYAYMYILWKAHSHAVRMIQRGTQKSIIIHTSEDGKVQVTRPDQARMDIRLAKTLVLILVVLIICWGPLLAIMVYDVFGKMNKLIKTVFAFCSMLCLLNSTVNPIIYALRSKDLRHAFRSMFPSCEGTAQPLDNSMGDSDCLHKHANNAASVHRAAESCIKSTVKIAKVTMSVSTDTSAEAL

## CCCCCc1c(C(=O)NCCc2ccc(N3CCOCC3)cc2)[nH]c2ccc(Cl)cc12 [11h, 5-Chloro-N-(4-morpholinophenethyl)-3-pentyl-1H-indole-2-carboxamide]
CB1 wild-type receptor [1]
  α: binding cooperativity factor between CP55,940 and the tested allosteric modulator: 10.0
CB1 wild-type receptor [2]
  Concentration giving complete inhibition of CP55,940-induced [35S]GTPγS binding: at least 10 μM
  Effect on CP55,940-induced [35S]GTPγS binding in the presence of allosteric modulator: Antagonizing

## CCc1c(C(=O)NCCc2ccc(N3CCCCC3)cc2)[nH]c2ccc(Cl)cc12 [compound 1, 5-chloro-3-ethyl-N-(4-(piperidin-1-yl)phenethyl)-1H-indole-2-carboxamide, reference compound]
CB1 wild-type receptor [3]
  α: binding cooperativity factor between CP55,940 and the tested allosteric modulator: 6.95
CB1 wild-type receptor [4]
  Concentration at which G protein coupling was inhibited: 3.2 µM
  Effect on CP55,940-induced [35S]GTPγS binding in the presence of allosteric modulator: Antagonizing

## CCCCCc1c(C(=O)NC(CO)Cc2ccc(N(C)C)cc2)[nH]c2ccc(Cl)cc12 (centres unmarked) [11k, 5-Chloro-N-(1-(4-(dimethylamino)phenyl)-3-hydroxypropan-2-yl)-3-pentyl-1H-indole-2-carboxamide]
CB1 wild-type receptor [1]
  α: binding cooperativity factor between CP55,940 and the tested allosteric modulator: 13.27

## CCCCCCCc1c(C(=O)NCCc2ccc(N3CCCCC3)cc2)[nH]c2ccc(Cl)cc12 [11e]
CB1 wild-type receptor [1]
  α: binding cooperativity factor between CP55,940 and the tested allosteric modulator: 7.38

## O=C(NCCc1ccc(N2CCCCC2)cc1)c1[nH]c2ccc(Cl)cc2c1CC1CCCCC1 [11d, 5-Chloro-3-(cyclohexylmethyl)-N-(4-(piperidin-1-yl)phenethyl)-1H-indole-2-carboxamide]
CB1 wild-type receptor [1]
  α: binding cooperativity factor between CP55,940 and the tested allosteric modulator: 9.84
[5]
  Solubility in organic solvents: very poor solubility

## CCc1c(C(=O)NCCc2ccc(N3CCCCC3)cc2)oc2ccc(Cl)cc12 [13b, 5-Chloro-3-ethyl-N-(4-(piperidin-1-yl)phenethyl)benzofuran-2-carboxamide]
CB1 wild-type receptor [1]
  α: binding cooperativity factor between CP55,940 and the tested allosteric modulator: 18.04
CB1 wild-type receptor [2]
  Concentration giving complete inhibition of CP55,940-induced [35S]GTPγS binding: at least 10 μM
  Effect on CP55,940-induced [35S]GTPγS binding in the presence of allosteric modulator: Antagonizing

## CCCCCc1c(C(=O)NCCc2ccc(N(C)C)cc2)[nH]c2ccc(Cl)cc12 [11j, 5-Chloro-N-(4-(dimethylamino)phenethyl)-3-pentyl-1H-indole-2-carboxamide]
CB1 wild-type receptor [1]
  α: binding cooperativity factor between CP55,940 and the tested allosteric modulator: 16.55
CB1 wild-type receptor [2]
  Concentration giving complete inhibition of CP55,940-induced [35S]GTPγS binding: 1 µM
  Effect on CP55,940-induced [35S]GTPγS binding in the presence of allosteric modulator: Antagonizing
CB1 wild-type receptor [2]; absence of orthosteric ligand, 5 μM GDP
  Concentration giving complete inhibition of basal [35S]GTPγS binding: 10 µM

## O=C(NCCc1ccc(N2CCCCC2)cc1)c1[nH]c2ccc(Cl)cc2c1Cc1ccccc1 [11c, 3-Benzyl-5-chloro-N-(4-(piperidin-1-yl)phenethyl)-1H-indole-2-carboxamide]
CB1 wild-type receptor [1]
  α: binding cooperativity factor between CP55,940 and the tested allosteric modulator: 11.37
[5]
  Solubility in organic solvents: very poor solubility

## CN(C)c1ccc(CCNC(=O)c2cc3cc(Cl)ccc3o2)cc1 [13d, 5-Chloro-N-(4-(dimethylamino)phenethyl)benzofuran-2-carboxamide]
CB1 wild-type receptor [1]
  α: binding cooperativity factor between CP55,940 and the tested allosteric modulator: 1.0

## CCCCCCC(C)(C)c1ccc([C@@H]2C[C@H](O)CC[C@H]2CCCO)c(O)c1 [CP55,940, 2-[(1R,2R,5R)-5-hydroxy-2-(3-hydroxypropyl)cyclohexyl]-5-(2-methyloctan-2-yl)phenol, reference compound]
CB1 wild-type receptor [2]; in the absence of allosteric modulator (11j), mean ± S.E.
  Emax of CP55,940-induced [35S]GTPγS binding: 113.0 ± 2.6 fmol/mg

## O=C(NCCc1ccc(N2CCCCC2)cc1)c1cc2cc(Cl)ccc2o1 [13a, 5-Chloro-N-(4-(piperidin-1-yl)phenethyl)benzofuran-2-carboxamide]
CB1 wild-type receptor [1]
  α: binding cooperativity factor between CP55,940 and the tested allosteric modulator: 1.0

## CCCCCc1c(C(=O)NCc2ccc(N3CCCCC3)cc2)[nH]c2ccc(Cl)cc12 [11g, 5-Chloro-3-pentyl-N-(4-(piperidin-1-yl)benzyl)-1H-indole-2-carboxamide]
CB1 wild-type receptor [1]
  α: binding cooperativity factor between CP55,940 and the tested allosteric modulator: 1.0

## CCc1c(C(=O)NCCc2ccc(N(C)C)cc2)[nH]c2ccc(Cl)cc12 [11l, 5-Chloro-N-(4-(dimethylamino)phenethyl)-3-ethyl-1H-indole-2-carboxamide]
CB1 wild-type receptor [1]
  α: binding cooperativity factor between CP55,940 and the tested allosteric modulator: 19.68

## CCCCCCCCCc1c(C(=O)NCCc2ccc(N3CCCCC3)cc2)[nH]c2ccc(Cl)cc12 [11f]
CB1 wild-type receptor [1]
  α: binding cooperativity factor between CP55,940 and the tested allosteric modulator: 6.80
CB1 wild-type receptor [2]
  Concentration giving complete inhibition of CP55,940-induced [35S]GTPγS binding: at least 10 μM
  Effect on CP55,940-induced [35S]GTPγS binding in the presence of allosteric modulator: Antagonizing

## O=C(NCCc1ccc(N2CCCCC2)cc1)c1[nH]c2ccc(Cl)cc2c1-c1ccccc1 [11b, 5-Chloro-3-phenyl-N-(4-(piperidin-1-yl)phenethyl)-1H-indole-2-carboxamide]
CB1 wild-type receptor [1]
  α: binding cooperativity factor between CP55,940 and the tested allosteric modulator: 1.0
[5]
  Solubility in organic solvents: very poor solubility

## CCCCCc1c(C(=O)NCCc2ccc(N3CCCCC3)cc2)[nH]c2ccc(Cl)cc12 [11a, 5-Chloro-3-pentyl-N-(4-(piperidin-1-yl)phenethyl)-1H-indole-2-carboxamide]
CB1 wild-type receptor [3]
  α: binding cooperativity factor between CP55,940 and the tested allosteric modulator: 17.6
CB1 wild-type receptor [4]
  Concentration at which G protein coupling was inhibited: 3.2 µM
  Effect on CP55,940-induced [35S]GTPγS binding in the presence of allosteric modulator: Antagonizing

## CCc1c(C(=O)NCCc2ccc(N(C)C)cc2)oc2ccc(Cl)cc12 [13c, 5-Chloro-N-(4-(dimethylamino)phenethyl)-3-ethylbenzofuran-2-carboxamide]
CB1 wild-type receptor [1]; 13c versus 11l
  Fold increase in KB on replacing the indole ring with a benzofuran ring: 3 fold
CB1 wild-type receptor [1]
  α: binding cooperativity factor between CP55,940 and the tested allosteric modulator: 11.59

## CCCCCc1c(C(=O)NCCc2ccc(Oc3ccccc3)cc2)[nH]c2ccc(Cl)cc12 [11i, 5-Chloro-3-pentyl-1H-indole-2-carboxylic acid [2-(4-phenoxy-phenyl)-ethyl]-amide]
CB1 wild-type receptor [1]
  α: binding cooperativity factor between CP55,940 and the tested allosteric modulator: 13.15

— paper PMC3880629 (Journal of medicinal chemistry, 2013)
